# Assay results as given in article PMC12948427 (The Journal of Clinical Investigation, 2025).
# “And” between values parts separate entries of the source, which are not always exact repeats. Equal entries are not always repeated. Where two headings read alike, the source gives them in different places.
# How the values were obtained:
# SARS-CoV-2 wild-type = test: microbe, parasite or virus in culture; assay type: cell-based
# SARS-CoV-2 Omicron BA.5 = test: microbe, parasite or virus in culture; assay type: cell-based; conditions: Severe acute respiratory syndrome coronavirus 2, 24 h, read-out: EC50 (IFA)
# HCoV-NL63 = test: In vitro antiviral activity assay (IFA), HCoV-NL63; assay type: cell-based; conditions: for Inhibition rate (IFA): Fig 5C, MOI 0.1, 48 h
# MHV [1] = test: microbe, parasite or virus in culture; assay type: cell-based, mouse hepatitis virus (MHV); conditions: Murine coronavirus, 24 h, read-out: EC50 (IFA)
# HCoV-OC43 = test: In vitro antiviral activity assay (IFA), HCoV-OC43; assay type: cell-based; conditions: for Inhibition rate (IFA): Fig 5E, MOI 0.1, 48 h
# HCoV-229E = test: In vitro antiviral activity assay (IFA), HCoV-229E; assay type: cell-based; conditions: for Inhibition rate (IFA): Fig 5F, MOI 0.1, 48 h
# WIV1 [2] = test: microbe, parasite or virus in culture; assay type: cell-based, bat coronavirus WIV1; conditions: Bat coronavirus, 48 h, read-out: EC50 (IFA)
# WIV1 [3] = assay type: cell-based, bat coronavirus WIV1
# MHV [4] = assay type: cell-based, mouse hepatitis virus (MHV)
# [5] = assay type: cell-based
# MHV [6] = system: MHV
# MHV [7] = test: microbe, parasite or virus in culture; conditions: Murine coronavirus, 24 h, read-out: EC50, rescue of coronavirus-induced cytopathic effects
smiles,measurement,setting,value
"CCC(CC)COC(=O)[C@H](C)N[P@](=O)(OC[C@H]1O[C@@](C#N)(c2ccc3c(N)ncnn23)[C@H](O)[C@@H]1O)Oc1ccccc1 [RDV, remdesivir]",Inhibition rate (IFA),SARS-CoV-2 wild-type,-18.2121%
same,EC50,"SARS-CoV-2 wild-type; Severe acute respiratory syndrome coronavirus 2, 24 h, read-out: EC50 (IFA)",3.51 µM
same,EC50,SARS-CoV-2 Omicron BA.5,1730 nM
same,Inhibition rate (IFA),HCoV-NL63; conc 10 (unit not given),-13.7402% and -16.2366% and -15.0261%
same,Inhibition rate (IFA),HCoV-NL63; conc 300 (unit not given),80.1311% and 63.4462% and 86.5422%
same,Inhibition rate (IFA),HCoV-NL63; conc 1000 (unit not given),98.8533% and 99.4472% and 99.9344%
same,Inhibition rate (IFA),HCoV-NL63; conc 3000 (unit not given),99.4236% and 99.6729% and 98.5431%
same,Inhibition rate (IFA),HCoV-NL63; conc 10000 (unit not given),99.8898% and 100.315% and 100.324%
same,Inhibition rate (IFA),HCoV-NL63; conc 25000 (unit not given),100.095% and 100.184% and 100.326%
same,EC50,"HCoV-NL63; Human coronavirus NL63, 48 h, read-out: EC50 (IFA)",200 nM
same,EC50,MHV [1],1290 nM
same,EC50,"HCoV-OC43; Betacoronavirus 1, OC43, 48 h, read-out: EC50 (IFA)",410 nM
same,Inhibition rate (IFA),HCoV-OC43; conc 10 (unit not given),50.23% and 41.56% and 35.15%
same,Inhibition rate (IFA),HCoV-OC43; conc 30 (unit not given),35.85% and 33.9% and 36.83%
same,Inhibition rate (IFA),HCoV-OC43; conc 100 (unit not given),54.42% and 40.68% and 45.58%
same,Inhibition rate (IFA),HCoV-OC43; conc 300 (unit not given),65.9% and 68.1% and 71.65%
same,Inhibition rate (IFA),HCoV-OC43; conc 1000 (unit not given),93.48% and 93.42% and 95.53%
same,Inhibition rate (IFA),HCoV-OC43; conc 3000 (unit not given),103.3% and 99.46% and 99.73%
same,Inhibition rate (IFA),HCoV-OC43; conc 10000 (unit not given),112.73% and 104.65% and 109.25%
same,Inhibition rate (IFA),HCoV-OC43; conc 25000 (unit not given),117.32% and 112.33% and 115.73%
same,Inhibition rate (IFA),HCoV-229E; conc 30 (unit not given),-0.99% and -1.45% and 0.82%
same,Inhibition rate (IFA),HCoV-229E; conc 100 (unit not given),-0.44% and -1.37% and -2.88%
same,Inhibition rate (IFA),HCoV-229E; conc 300 (unit not given),11.16% and 13% and 6.71%
same,Inhibition rate (IFA),HCoV-229E; conc 1000 (unit not given),47.55% and 40.71% and 45.97%
same,Inhibition rate (IFA),HCoV-229E; conc 3000 (unit not given),81.01% and 82.05% and 81.07%
same,Inhibition rate (IFA),HCoV-229E; conc 10000 (unit not given),97.22% and 97.53% and 97.6%
same,Inhibition rate (IFA),HCoV-229E; conc 25000 (unit not given),98.73% and 98.28%
same,EC50,"HCoV-229E; Human coronavirus 229E, 48 h, read-out: EC50 (IFA)",1010 nM
same,EC50,WIV1 [2],2420 nM
same,extracellular viral gRNA levels (RT-qPCR),WIV1 [3],1.00 and 2.00
same,Extracellular MHV gRNA (Figure S11A),"MHV [4]; Ctr 17Cl-1 cells, 24 hpi",1.417 and 1.434 and 1.4484
same,Extracellular MHV gRNA (Figure S11A),"MHV [4]; Ctr 17Cl-1 cells, 48 hpi",2.342 and 2.426 and 2.427
same,Extracellular MHV gRNA (Figure S11A),"MHV [4]; Ctr 17Cl-1 cells, 72 hpi",2.913 and 2.938 and 2.965
same,Extracellular MHV gRNA (Figure S11A),"MHV [4]; Hgs-KO1 17Cl-1 cells, 24 hpi",0.1732 and 0.2504 and 0.2945
same,Extracellular MHV gRNA (Figure S11A),"MHV [4]; Hgs-KO1 17Cl-1 cells, 48 hpi",0.5159 and 0.4955 and 0.5011
same,Extracellular MHV gRNA (Figure S11A),"MHV [4]; Hgs-KO1 17Cl-1 cells, 72 hpi",0.5763 and 0.5575 and 0.5302
same,Extracellular MHV gRNA (Figure S11A),"MHV [4]; Hgs-KO2 17Cl-1 cells, 48 hpi",0.243 and 0.2742 and 0.2718
same,Extracellular MHV gRNA (Figure S11A),"MHV [4]; Hgs-KO2 17Cl-1 cells, 72 hpi",0.4771 and 0.48 and 0.4728
same,antiviral activity in Hgs-KO cells,"MHV [4]; MHV, Hgs-KO 17Cl-1, RTB 25 μM or RDV 5 μM, compared with DMSO-treated Hgs-KO cells",maintained potent antiviral activity
same,"Inhibition, time-of-drug-addition (Figures S12A, S12B)","[5]; 1h, concentration 30 (unit not given)",5.191 and 6.604 and 3.913
same,"Inhibition, time-of-drug-addition (Figures S12A, S12B)","[5]; 1h, concentration 300 (unit not given)",29.4212 and 36.852 and 30.2123
same,"Inhibition, time-of-drug-addition (Figures S12A, S12B)","[5]; 1h, concentration 1000 (unit not given)",94.0553 and 94.9808 and 93.9778
same,"Inhibition, time-of-drug-addition (Figures S12A, S12B)","[5]; 1h, concentration 3000 (unit not given)",100.171 and 99.7032 and 100.277
same,"Inhibition, time-of-drug-addition (Figures S12A, S12B)","[5]; 1h, concentration 10000 (unit not given)",100.334 and 99.9318 and 99.6732
same,"Inhibition, time-of-drug-addition (Figures S12A, S12B)","[5]; 1h, concentration 25000 (unit not given)",99.7405 and 99.6154 and 100.895
same,"Inhibition, time-of-drug-addition (Figures S12A, S12B)","[5]; 3h, concentration 300 (unit not given)",9.79 and 17.6203 and 16.0643
same,"Inhibition, time-of-drug-addition (Figures S12A, S12B)","[5]; 3h, concentration 1000 (unit not given)",55.9963 and 60.6001 and 59.2495
same,"Inhibition, time-of-drug-addition (Figures S12A, S12B)","[5]; 3h, concentration 3000 (unit not given)",88.3762 and 86.7679 and 87.568
same,"Inhibition, time-of-drug-addition (Figures S12A, S12B)","[5]; 3h, concentration 10000 (unit not given)",90.2121 and 88.9101 and 87.2358
same,"Inhibition, time-of-drug-addition (Figures S12A, S12B)","[5]; 3h, concentration 25000 (unit not given)",90.2507 and 90.1885 and 92.1218
same,"Inhibition, time-of-drug-addition (Figures S12A, S12B)","[5]; 5h, concentration 1000 (unit not given)",25.3228 and 41.8171 and 37.9682
same,"Inhibition, time-of-drug-addition (Figures S12A, S12B)","[5]; 5h, concentration 3000 (unit not given)",84.9456 and 81.9798 and 79.5741
same,"Inhibition, time-of-drug-addition (Figures S12A, S12B)","[5]; 5h, concentration 10000 (unit not given)",96.9121 and 98.7645 and 101.081
same,"Inhibition, time-of-drug-addition (Figures S12A, S12B)","[5]; 5h, concentration 25000 (unit not given)",101.735 and 102.093 and 102.226
same,"Inhibition, time-of-drug-addition (Figures S12A, S12B)","[5]; 7h, concentration 3000 (unit not given)",42.654 and 32.1868 and 38.6066
same,"Inhibition, time-of-drug-addition (Figures S12A, S12B)","[5]; 7h, concentration 10000 (unit not given)",72.2116 and 77.3057 and 82.6181
same,"Inhibition, time-of-drug-addition (Figures S12A, S12B)","[5]; 7h, concentration 25000 (unit not given)",95.7566 and 91.5378 and 92.3496
same,antiviral activity versus time of treatment start,"[5]; RTB 25 μM or RDV 5 μM added at 0, 2, 4 or 6 hpi",decreased in a time-dependent manner
same,"cell viability, Figures S9A, B, D-F",17Cl-1 cells; concentration 0.01,103.896 and 102.857
same,"cell viability, Figures S9A, B, D-F",17Cl-1 cells; concentration 0.03,100
same,"cell viability, Figures S9A, B, D-F",17Cl-1 cells; concentration 0.1,100
same,"cell viability, Figures S9A, B, D-F",17Cl-1 cells; concentration 0.3,100
same,"cell viability, Figures S9A, B, D-F",17Cl-1 cells; concentration 1,100
same,"cell viability, Figures S9A, B, D-F",17Cl-1 cells; concentration 3,100
same,"cell viability, Figures S9A, B, D-F",17Cl-1 cells; concentration 10,100
same,"cell viability, Figures S9A, B, D-F",17Cl-1 cells; concentration 25,100
same,"viability of infected cells (rescue of cytopathic effect), Figures S9G-L",MHV [6]; concentration 10,46.7323 and 45.5347 and 44.3372
same,"viability of infected cells (rescue of cytopathic effect), Figures S9G-L",MHV [6]; concentration 30,45.5347 and 43.8916 and 43.4181
same,"viability of infected cells (rescue of cytopathic effect), Figures S9G-L",MHV [6]; concentration 100,50.492 and 47.7906 and 49.378
same,"viability of infected cells (rescue of cytopathic effect), Figures S9G-L",MHV [6]; concentration 300,59.7939 and 57.0925 and 55.143
same,"viability of infected cells (rescue of cytopathic effect), Figures S9G-L",MHV [6]; concentration 1000,78.2027 and 84.5804 and 83.9955
same,"viability of infected cells (rescue of cytopathic effect), Figures S9G-L",MHV [6]; concentration 3000,102.237 and 100.176 and 102.46
same,"viability of infected cells (rescue of cytopathic effect), Figures S9G-L",MHV [6]; concentration 10000,103.491 and 100.789 and 102.906
same,"viability of infected cells (rescue of cytopathic effect), Figures S9G-L",MHV [6]; concentration 25000,101.903 and 103.017 and 102.042
same,EC50,MHV [7],690 nM
